In US8846695B2, “Treatment for diabetes in patients with inadequate glycemic control despite metformin therapy comprising a DPP-IV inhibitor” (Boehringer Ingelheim International GmbH, priority 2009, dated 2014):

Key:
[1] = human, in vivo
[2] = 12-week randomized double-blind add-on to metformin study: HbA1c and FPG; design: placebo corrected mean reduction in HbA1c: dose or concentration left out as unconfirmed
Description: Effects were compared to add-on of placebo (PBO) or of open label glimepiride (GLIM; 1 to 3 mg qd) in a 12-week randomized, double-blind study.
The primary endpoint was change from baseline in HbA1c, adjusted for prior antidiabetic medication.

[3] = Thorough QT study, single dose, healthy female and male subjects (QTcI); format: in vivo, human; settings: therapeutic (5 mg) and supratherapeutic (100 mg)
Description: A thorough QT study of BI 1356, a potent and selective dipeptidyl peptidase-4 inhibitor, was performed in healthy female and male subjects, using 5 mg (therapeutic dose) and 100 mg. The study was a randomised, single-dose, placebo-controlled, double-blind, four-way crossover study with open-label moxifloxacin (400 mg) as positive control. Triplicate 12-lead electrocardiograms (ECGs) of 10 seconds' duration were recorded for all subjects pre-dose and at various time points over a 24-h period after each treatment. The primary parameter was the subject-specific heart rate corrected QT interval (QTcI).

[4] = Adverse events and hypoglycaemia in the 12-week add-on to metformin study; format: in vivo, human; settings: 1, 5 or 10 mg qd with metformin, 12 weeks
From the text: In total, 106 patients (43.1%) experienced adverse events (AEs) with similar incidences across all treatments. Most frequently reported episodes were nasopharyngitis (7.5%), diarrhoea (3.3%), and nausea (3.0%). […] Ten patients (3.7%) experienced serious AEs but none of these events were considered drug-related.
The addition of BI 1356 to MET in patients with T2DM inadequately controlled on MET alone achieved clinically relevant and statistically significant reductions in HbA1c.

[5] = 5 mg daily, 12 weeks, add-on to metformin

CC#CCn1c(N2CCC[C@@H](N)C2)nc2c1c(=O)n(Cc1nc(C)c3ccccc3n1)c(=O)n2C [BI 1356]
form and path of excretion [1]: primarily excreted unchanged via the bile
percentage of patients achieving HbA1c lowering of ≧0.5% from baseline [2, 5]: 53.2%
percentage of patients achieving HbA1c lowering of ≧1.0% from baseline [2, 5]: 27.4%
percentage of patients achieving a HbA1c value [2, 5]: 14.5%
time at which maximum glucose-lowering effects are reached ([2]; 1, 5 and 10 mg once daily added to metformin, plateau thereafter): 8 weeks
prolongation of the QT interval [3]: did not prolong the QT interval
drug-related hypoglycaemia [4]: no case of hypoglycaemia was reported

CCC1=C(C)CN(C(=O)NCCc2ccc(S(=O)(=O)NC(=O)N[C@H]3CC[C@H](C)CC3)cc2)C1=O [GLIM, glimepiride, reference compound]
placebo corrected mean reduction in HbA1c ([2]; Week 12, add-on to metformin, n=64): −0.90%
